According to patent US20060052582A1, “Identification of inhibitors of mitosis” (priority 2002, published 2006):

How the values were obtained:
[1] = system: BHK cells; experiment: Leptomycin B treatment, Nercc localization in transfected BHK cells; type: cell-based, hamster
Protocol: (§1) Cells grown on coverslips were rinsed with PBS, fixed in methanol at −20° C. for 15 min, rinsed twice with PBS and incubated for 30 min at room temperature with the appropriate dilution of primary antibody in PBS. To visualize endogenous Nercc, affinity purified anti-Nercc peptide antibodies (N1 and C1) were employed at 10 μg/ml. Microtubules were visualized with a α/β-tubulin specific antibody. Coverslips were washed with PBS, and incubated with labeled secondary antibodies from corresponding species in appropriate combination-fluorescein or rhodamine X-conjugated donkey anti-rabbit, Cy2 or rhodamine X-conjugated donkey anti-mouse (each at 1:450). Incubation was terminated with a rinse in PBS, and the coverslips were mounted on a microscope slide. For immunodetection blocking, Nercc1 C1- or N1-antibody was incubated for 30 min at 37° C. with a 15-fold molar excess of immunizing peptide. After centrifugation at 12,000× g for 10 min, the mixture was used for immunoblotting or immunocytochemistry, as indicated. To examine the effects of Leptomycin B treatment on Nercc localization, HeLa or BHK21 cells were grown to subconfluency on 25 mm round glass coverslips in DMEM supplemented with 10% fetal bovine serum and penicillin-streptomycin. BHK21 cells were transfected (Fugene, Roche Molecular Biochemicals) with the wild type FLAG Nercc; medium was replaced after 18 hours (h). […]

[2] = system: HeLa cells; experiment: Leptomycin B treatment, endogenous Nercc localization in HeLa cells; type: cell-based, human
Protocol: as §1

[3] = system: p70S6K; experiment: Activity of endogenous p70S6K immunoprecipitated from H4-II-E-C3 hepatoma cells; type: cell-based, rat; details: for IC50: insulin-stimulated H4 cells, insulin plus increasing inhibitor concentrations for 30 minutes, read-out: IC50 for inhibition of p70S6K activity
Protocol: (§2) Endogenous Nek6 polypeptide was immunoprecipitated from lysates of rat H4-II-E-C3 hepatoma cells following prior treatment for varying times (min) with 100 nM insulin (FIG. 12B), or insulin plus increasing concentrations of either wortmannin (FIG. 12C) or rapamycin (FIG. 12D) for 30 minutes. Nek6 kinase activity was measured using GST p70S6K ΔCT104 (Thr252Ala) as substrate (see, text for details). The activity of endogenous p70S6K αI/II, immunoprecipitated from the same lysates, was measured using a synthetic peptide substrate. Kinase activities are expressed as either fold increase in baseline activity (as in FIG. 12B; open circles show Nek6 activity; filled squares show p70S6K activity) or as histograms depicting the percent activity remaining for Nek6 (filled bars) or p70S6K (open bars) (as in FIGS. 12C and 12D).
The regulation of endogenous Nek6 activity in vivo was examined. An affinity purified anti-Nek6 peptide antibody raised against a polypeptide comprising an amino terminal murine Nek6 peptide AGQPSHMPHGGSPN (SEQ ID NO:30) conjugated to KLH via a cysteine residue as described above, gave highly specific immunoblots and was capable of modest immunoprecipitation of the endogenous Nek6 polypeptide, although at very low efficiency. Thus far, useful antibodies reactive with endogenous Nek7 have not been obtained. Nek6 immunoreactivity was evident in several commonly used mammalian cell lines including COS7 cells (FIG. 12A). […] Moreover, Nek6 had been isolated as a candidate p70S6 Kinase-Thr412 kinase, and insulin regulation of endogenous p70S6 Kinase (also referred to as p70S6K) had previously been characterized in this cell line (see, Price et al., Proc. Natl. Acad. Sci. USA, 87: 7944-7948 (1990)). Insulin generated a rapid, fifteen-fold activation of endogenous p70S6Kinase in serum-deprived H4 cells; under these conditions, however, no change occurred in the basal activity of immunoprecipitated endogenous Nek6 (FIG. 12B). […] The specific activity of Nek6 in H4 cells is, however, sensitive to serum withdrawal and declines progressively by 80% over 48 hours (FIG. 12E). […]

[4] = system: Nek6; experiment: Activity of endogenous Nek6 immunoprecipitated from H4-II-E-C3 hepatoma cells; type: cell-based, rat; details: serum-deprived H4 cells; 100 nM insulin
Chain of Nek6 (Q9HC98 whole entry): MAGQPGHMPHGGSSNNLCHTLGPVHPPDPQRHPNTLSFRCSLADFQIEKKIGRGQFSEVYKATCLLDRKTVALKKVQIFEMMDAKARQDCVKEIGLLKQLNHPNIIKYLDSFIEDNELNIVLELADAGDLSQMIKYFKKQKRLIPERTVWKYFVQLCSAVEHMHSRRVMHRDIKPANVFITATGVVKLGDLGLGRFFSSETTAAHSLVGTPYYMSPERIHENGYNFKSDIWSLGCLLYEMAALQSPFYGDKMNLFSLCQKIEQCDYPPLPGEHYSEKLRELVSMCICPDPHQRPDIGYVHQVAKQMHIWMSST
Protocol: as §2
Immunoprecipitates (IP) of recombinant Nek6 (using anti-FLAG or anti-myc antibodies) or endogenous Nek6 were washed three times in the extraction buffer containing 0.5 M LiCl, and twice in kinase buffer (50 mM MOPS pH 7.4, 10 mM MgCl2, 2 mM EGTA, 20 mM β-glycerophosphate). […] Kinase mixtures were resolved by SDS-PAGE, transferred to PVDF membrane, and Nek6 phosphotransferase activity determined by excising Coomassie stained bands corresponding to the substrate and measuring radioactive content by Cerenkov scintillation counting. […]

[5] = system: Nek6; experiment: Nek6 kinase assay in vitro with p70S6K ΔCT104 as substrate; type: biochemical, human
Protocol: Transiently expressed FLAG Nek6 was incubated for 1 hour at 4° C. alone or with increasing quantities of either purified prokaryotic recombinant GST (lanes 6-8) or prokaryotic recombinant GST Nercc1 (732-979) (lanes 2-5). Nek6 activity was assayed using p70S6K ΔCT104 as substrate. Upper panel: mean±S.E.M. percent of control Nek6 activity. Lower panels: ^32P autoradiography, Coomassie stain of the GST Nercc1 (732-979) or GST proteins, and western blot of the FLAG Nek6 wild type.
Immunoprecipitates (IP) of recombinant Nek6 (using anti-FLAG or anti-myc antibodies) or endogenous Nek6 were washed three times in the extraction buffer containing 0.5 M LiCl, and twice in kinase buffer (50 mM MOPS pH 7.4, 10 mM MgCl2, 2 mM EGTA, 20 mM β-glycerophosphate). Kinase assays were performed in 30 μl kinase buffer containing 1.5 μg GST-p70S6K ΔCT104 (Thr252Ala) or MBP (0.2 mg/ml) and initiated by addition of [γ-^32P] ATP (5 μM final concentration at 4000 cpm/pmol). Reactions were incubated for 10 minutes at 30° C. and terminated by the addition of 4×SDS sample buffer. Kinase mixtures were resolved by SDS-PAGE, transferred to PVDF membrane, and Nek6 phosphotransferase activity determined by excising Coomassie stained bands corresponding to the substrate and measuring radioactive content by Cerenkov scintillation counting.

`CCC(=C/[C@H](C)C/C=C/C(C)=C/[C@@H](C)C(=O)[C@@H](C)[C@H](O)[C@@H](C)C/C(C)=C/C(=O)O)/C=C/[C@@H]1OC(=O)C=C[C@@H]1C` [Leptomycin B] was tested, and the “endogenous RanBP1 fluorescence in the nucleus” value ([1]; 20 nM, 30 minutes incubation) was “increased dramatically”, the “localization of wild type Nercc” value ([1]; 2, 20 and 200 nM, 30 minutes to 24 hours) was “remained cytoplasmic” and the “response of endogenous Nercc localization” value [2] was “lack of response”.

For `COC[C@H]1OC(=O)c2coc3c2[C@@]1(C)C1=C(C3=O)[C@@H]2CCC(=O)[C@@]2(C)C[C@H]1OC(C)=O` [wortmannin], the IC50 [3] was roughly 30 nM.

With “Insulin: insulin, used at 100 nM to stimulate H4 cells” the “change in basal activity of immunoprecipitated endogenous Nek6” value [4] was “no change” and the “activation of endogenous p70S6Kinase” value ([3]; serum-deprived H4 cells, 100 nM insulin) was “fifteen-fold”.

With “GST Nercc1 (732-979): fusion protein of GST linked to Nercc amino acids 732-979 of SEQ ID NO:2” the “mode of inhibition of Nek6 catalytic activity” value [5] was “noncompetitive” and the “effect on enzymatic activity of preactivated wild type Nek6” value ([5]; concentrations far below those of p70S6K ΔCT104 substrate) was “substantial inhibition”.

For `CO[C@H]1C[C@@H]2CC[C@@H](C)[C@@](O)(O2)C(=O)C(=O)N2CCCC[C@H]2C(=O)O[C@H]([C@H](C)C[C@@H]2CC[C@@H](O)[C@H](OC)C2)CC(=O)[C@H](C)/C=C(\C)[C@@H](O)[C@@H](OC)C(=O)[C@H](C)C[C@H](C)/C=C/C=C/C=C/1C` [rapamycin], the IC50 [3] was roughly 2 nM.
